pIC50: −log10 of the molar value. Read-outs that look alike come from different tables or passages of the source.

In data set [1] the test system is rape Brassica napus. The experiment in a line: Petri dish culture, growth inhibition of root and stalk of rape. It counts as in vivo. Conditions: Brassica napus, 120 h, 5 days; for inhibition at 1 µg/mL: 1 mg/L; for inhibition at 10 µg/mL: 10 mg/L. Summed up:
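Herbicidal activity against the dicotyledon rape (Brassica napus) was assessed using a standard Petri dish pre-emergence test. Twenty seeds were placed on two filter papers in a 9 cm dish containing 9 mL of test solution. Dishes were incubated for 5 days at 23 ± 1 °C, 60 ± 5% humidity, 10 Klux light, 12 h/day photoperiod. Ten roots and ten stalks were then measured, and percent growth inhibition was calculated relative to distilled-water controls.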

The test system of data set [2] is barnyard grass Echinochloa crusgalli. The experiment in a line: Petri dish culture, growth inhibition of root and stalk of barnyard grass. Conditions: Echinochloa crus-galli, 120 h, 5 days; for inhibition at 1 µg/mL: 1 mg/L; for inhibition at 10 µg/mL: 10 mg/L. It is filed as in vivo. Put shortly: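 Herbicidal activity toward the monocot barnyard grass (Echinochloa crusgalli) was assessed with a standard Petri dish pre-emergence test. Twenty seeds sat on two filter papers in a 9 cm dish wetted with 9 mL of test solution. Dishes were incubated 5 days at 23 ± 1 °C, 60 ± 5% humidity, 10 Klux, 12 h/day light. Mean lengths of 10 roots and 10 stems gave percent inhibition versus distilled-water controls.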

Data set [3] has as its system rape Brassica napus. Briefly: Concentration-dependent root elongation inhibition of rape (IC50). Particulars: Brassica napus; rape root elongation, Table 3; read-out: IC50 for the root elongation inhibition of rape. It is filed as in vivo. As to the method:
Several representative compounds selected from the 2-phenoxy-4H-3,1-benzoxazin-4-one and 2-phenoxy-3H-quinazolin-4-one groups were tested their concentration dependant activities and the half maximal inhibitory concentrations (IC50 values) are shown in Table 3. Obviously, the 2-phenoxy-4H-3,1-benzoxazin-4-ones 3m and 3o have IC50 values near to that of the commercial herbicidal 2,4-D. More importantly, these molecules consist of 2-phenoxymethyl group with halo substituents both at the 2- and 4- positions of the benzene ring, a similar pattern to the commercial hormone herbicides 2,4-D, clomeprop, and 2,4-DB, as well as the ACCase herbicide diclofop-methyl. […] Moreover, if no halo group exists on the benzene ring, the activity will decrease dramatically. On the other hand, the substructure 4H-3,1-benzoxazin-4-one in this work and the carboxylic group in the commercial phenoxyethanoic and phenoxypropionic acid herbicides play also a crucial role in the contribution to the activities of the compounds, meaning they are active substructures.
The herbicidal activity was examined for the growth inhibition effect of the dicotyledon rape Brassica napus and the monocotyledon barnyard grass Echinochloa crusgalli, using the standard Petri dish test and the pre-emergence treatment procedure. Briefly, the compounds to be tested were dissolved in DMF and emulsified with Tween 80, and the solutions were diluted with water to the concentrations of […], respectively. Nine mL of the solution was added in a Petri dish of 9 cm diameter and two pieces of filter paper were placed on the dish bottom. Twenty seeds each of rape and barnyard grass were placed on the filter paper. The covered Petri dish was transferred into an artificial climate incubator (MGC-400H, Shantou Keyi Co., Ltd., China), where the conditions were controlled at temperature 23 ± 1 °C, humidity 60 ± 5%, light intensity 10 Klux, and photoperiod 12 h/day. The incubation was continued for 5 days, then the lengths of 10 roots and 10 stems for each type of plant were measured and the mean values were calculated. The percent inhibitory ratios were calculated relative to control plants exposing to distilled water instead of the compound solution.

Where [4] appears, read: root growth, read-out: Relative inhibition, root.
Where [5] appears, read: stalk growth, read-out: Relative inhibition, stalk.

As to `Nn1c(COc2ccc(Cl)cc2Cl)nc2ccccc2c1=O` [4f, 3-Amino-2-((2,4-dichlorophenoxy)methyl)-3H-quinazolin-4-one], the melting point (as a rule, the temperature of the solid-liquid transition) lay within 214.6 to 215.7 °C. For the same molecule, in data set [1] (setting [4]), the inhibition (as a rule, the relative decrease from the control value, in per cent) at 1 µg/mL was 65.6% and the inhibition at 10 µg/mL was 73.4%. In addition, in data set [1] (setting [5]), the inhibition at 1 µg/mL was determined as 48.1% and the inhibition at 10 µg/mL turned out to be 48.1%. Moreover, in data set [2] (setting [4]), the inhibition at 1 µg/mL stood at 35% and the inhibition at 10 µg/mL was 22.2%. Also, in data set [2] (setting [5]), the inhibition at 1 µg/mL was -5% and the inhibition at 10 µg/mL is -6.6%. Moreover, the pIC50 (commonly −log10 of the IC50, conventionally taken in molar units) in data set [3] was 3.65.
`O=c1oc(COc2ccc(Cl)cc2)nc2ccc(Cl)cc12` [3i, 6-Chloro-2-((4-chlorophenoxy)methyl)-4H-3,1-benzoxazin-4-one] yielded a melting point of 153.2 to 154.6 °C. In data set [1] (setting [4]), the inhibition at 1 µg/mL amounted to 91.4% and the inhibition at 10 µg/mL was found to be 100%. Moreover, in data set [1] (setting [5]), the inhibition at 1 µg/mL was 40.2% and the inhibition at 10 µg/mL was 82.1%. Also, in data set [2] (setting [4]), the inhibition at 1 µg/mL came to 55.3% and the inhibition at 10 µg/mL came to 87.8%. Moreover, in data set [2] (setting [5]), the inhibition at 1 µg/mL is -7.3% and the inhibition at 10 µg/mL was found to be 13.2%. Further, the pIC50 in data set [3] was 4.65.
